Measured values from ChEMBL document CHEMBL1201862, “PubChem BioAssay data set” (2004).
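Step 1: Grow cells in 96-well plates. Step 2: Expose to compound for 48 hours at 5 concentrations. Step 3: Interpolate endpoints linearly; if unreached, use highest concentration. GI50: concentration for 50% inhibition of growth.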 Active and inactive are the calls of the source. Cut-off read from the data, not from the text of the source: active = GI50 up to about 1.1 µM and inactive = higher.

Legend:
Experiment in all cases: NCI anticancer screen, dose series, 48 h
786-0 = test system: 786-0
A498 = test system: A498
A549 = test system: A549
ACHN = test system: ACHN
BT-549 = test system: BT-549
CAKI-1 = test system: CAKI-1
CCRF-CEM = test system: CCRF-CEM
COLO 205 = test system: COLO 205
DLD-1 = test system: DLD-1
DMS-114 = test system: DMS-114
DMS-273 = test system: DMS-273
DU-145 = test system: DU-145
EKVX = test system: EKVX
HCC 2998 = test system: HCC 2998
HCT-116 = test system: HCT-116
HCT-15 = test system: HCT-15
HL-60 = test system: HL-60
HOP-18 = test system: HOP-18
HOP-62 = test system: HOP-62
HOP-92 = test system: HOP-92
HT-29 = test system: HT-29
Hs-578T = test system: Hs-578T
IGROV-1 = test system: IGROV-1
K562 = test system: K562
KM-20L2 = test system: KM-20L2
KM12 = test system: KM12
LOX IMVI = test system: LOX IMVI
LXFL 529 = test system: LXFL 529
M14 = test system: M14
M19-MEL = test system: M19-MEL
MCF7 = test system: MCF7
MDA-MB-231 = test system: MDA-MB-231
MDA-MB-435 = test system: MDA-MB-435
MDA-N = test system: MDA-N
MOLT-4 = test system: MOLT-4
Malme-3M = test system: Malme-3M
NCI-H226 = test system: NCI-H226
NCI-H23 = test system: NCI-H23
NCI-H460 = test system: NCI-H460
NCI-H522 = test system: NCI-H522
NCI/ADR-RES = test system: NCI/ADR-RES
OVCAR-4 = test system: OVCAR-4
OVCAR-5 = test system: OVCAR-5
OVCAR-8 = test system: OVCAR-8
PC-3 = test system: PC-3
RPMI-8226 = test system: RPMI-8226
RXF 393 = test system: RXF 393
SF-268 = test system: SF-268
SF-295 = test system: SF-295
SF-539 = test system: SF-539
SK-MEL-28 = test system: SK-MEL-28
SK-MEL-2 = test system: SK-MEL-2
SK-MEL-5 = test system: SK-MEL-5
SK-OV-3 = test system: SK-OV-3
SN12C = test system: SN12C
SNB-19 = test system: SNB-19
SNB-75 = test system: SNB-75
SNB-78 = test system: SNB-78
SR = test system: SR
SW-620 = test system: SW-620
T47D = test system: T47D
TK-10 = test system: TK-10
U-251 = test system: U-251
UACC-257 = test system: UACC-257
UACC-62 = test system: UACC-62
UO-31 = test system: UO-31
XF498 = test system: XF498

Measured: GI50

C/C(=N\NC(=S)N1CCN(c2ccccn2)CC1)c1ncccn1
active: 786-0 60.1 nM | A549 166 nM | ACHN 69.3 nM | CCRF-CEM 6.15 nM | COLO 205 56.9 nM | DLD-1 2.72 nM | DMS-114 2.33 nM | DMS-273 11.4 nM | EKVX 291 nM | HCC 2998 361 nM | HCT-116 3.95 nM | HL-60 7.52 nM | HOP-62 106 nM | HT-29 16.1 nM | IGROV-1 2.75 nM | K562 7.11 nM | KM-20L2 9.84 nM | KM12 254 nM | LOX IMVI 98.6 nM | LXFL 529 1 nM | M14 51.5 nM | M19-MEL 638 nM | MCF7 10.8 nM | MDA-MB-231 21.4 nM | MOLT-4 11.6 nM | Malme-3M 267 nM | NCI-H226 216 nM | NCI-H23 < 28.8 nM | NCI-H460 72.6 nM | NCI-H522 53.8 nM | NCI/ADR-RES 17.9 nM | OVCAR-4 205 nM | OVCAR-5 30.3 nM | OVCAR-8 28.9 nM | RPMI-8226 13.1 nM | SF-268 32.3 nM | SF-295 59.4 nM | SF-539 527 nM | SK-MEL-28 417 nM | SK-MEL-2 310 nM | SK-MEL-5 109 nM | SK-OV-3 284 nM | SN12C 566 nM | SR 86.3 nM | SW-620 196 nM | T47D 95.3 nM | U-251 36.9 nM | UACC-257 16.5 nM | UACC-62 34.4 nM | UO-31 993 nM | XF498 24.7 nM
inactive: A498 2070 nM | BT-549 4670 nM | CAKI-1 1760 nM | DU-145 2510 nM | HOP-18 1640 nM | HOP-92 1630 nM | Hs-578T 1870 nM | MDA-MB-435 2830 nM | MDA-N 6930 nM | PC-3 4370 nM | RXF 393 1650 nM | SNB-19 2560 nM | SNB-75 3430 nM | SNB-78 6050 nM | TK-10 2670 nM
20 nM: HCT-15
